The source of these data is patent US6602824B1, “Herbicidal composition and a method of using a naturally-occurring organic compound as a herbicide” (Greener Pastures Development Corp., priority 1999, dated 2003).

The test system of data set [1] is rats. The experiment in a line: LD50, single oral dose administered to rats. As to conditions: orally administered to rats; versus sodium chloride.
Data set [2] concerns rats. As to conditions: orally administered to rats; cited from earlier work.

Where a name gives a salt, the structure may show the parent alone.

Turning to `C[N+](C)(C)CC(=O)[O-]` [glycine betaine, 1-carboxy-N,N,N-trimethylmethanaminium inner salt], in the data set on rats [1], the “toxicity relative to ordinary table salt, as reflected by the oral rat LD50” value was “more than three times less toxic”. In the data set with rats [2], the LD50 entry is reported as “about 11,204 mg per kilogram of rat body we”.
